In PubChem BioAssay AID1963970 (Molecular Pharmacology Branch, DTP, NCI, 2024):

Test system: 931267-113-T-J1-PDC multicell spheroid viability
Test: Anticancer human tumor 931267-113-T-J1-PDC patient-derived colon adenocarcinoma cell line growth inhibition [PI3K]
Conditions: for IC50: curve of first compound; for viability, T/C: stronger effect = lower value
Text: Combinatorial screen of targeted agents with the PI3K inhibitors inavolisib, alpelisib, duvelisib, and copanlisib in multi-cell type tumor spheroids
A high-throughput screen of multi-cell type tumor spheroids was designed to identify active combinations of targeted small molecules and PI3K pathway inhibitors. Complex spheroids include a stromal component modeled by human endothelial cells (HUVEC) and fibroblasts modeled by human mesenchymal stem cells (MSCs). The concentration ranges selected for each drug and investigational agent were based upon clinically achievable concentrations if the clinical Cmax of the agent was known.
Compounds. The drugs and investigational agents: inavolisib (NSC800729), alpelisib (NSC765974), duvelisib (NSC772469), copanlisib (NSC816437), ipatasertib (NSC767898), afuresertib (NSC778305), talazoparib (NSC767125), sapanisertib (NSC764658), selumetinib (NSC741078), tovorafenib (DAY101, NSC766906), vemurafenib (NSC761431), ravoxertinib (NSC781343), sotorasib (NSC818433), MRTX1133 (NSC 836407), abemaciclib (NSC 768073), palbociclib (NSC758247), venetoclax (NSC 766270), SY5609 (NSC837396), enzalutamide (NSC755605), and darolutamide (NSC825331), were obtained from the National Cancer Institute (NCI) Developmental Therapeutics Program Chemical Repository. The FDA-approved anticancer drug set is available from the NCI Developmental Therapeutics Program. […] The stock solutions were prepared in dimethyl sulfoxide (DMSO, Sigma-Aldrich, St. Louis, MO, cat. D2650) at 800-fold the tested concentration and stored at -70 degrees C prior to their use. All drugs and investigational agents were tested over a range starting from a high concentration at or near the clinical Cmax and decreasing in half-log increments. If the clinical Cmax for an agent had not been determined, the highest concentration tested was 10 microM.
Cell Culture. All cells were maintained in an incubator at 37 degrees C and 5% CO2 with 95% humidity. The PDC lines were cultured according to standard operating procedures established by the NCI PDMR (https://pdmr.cancer.gov/sops/default.htm). All PDCs were thawed and cultured in Matrigel-coated flasks prepared with a working solution of 1X Ham's F-12 nutrient mix, without supplementation (Invitrogen, Waltham, MA, cat. 11765054), 100 U/mL penicillin-streptomycin (Invitrogen, cat. 15140122), and 2.5% Matrigel (Corning Inc., Corning, NY, cat. 354248) for the first three passages. The 354836-022-R-J1-PDC, 475296-252-R-J1-PDC, and 997726-040-R-J2-PDC lines were cultured in 6A media, which includes advanced DMEM/F-12 (Thermo Fisher Scientific, cat. 12634028), 10 mM HEPES (Thermo Fisher Scientific, cat. 15630080), 1X GlutaMAX supplement (Thermo Fisher Scientific, cat. 35050061), 0.1 mg/mL primocin (InvivoGen, San Diego, CA, cat. ant-pm-2), 10% defined fetal bovine serum, heat inactivated (HyClone Laboratories Inc., Logan, UT, cat. SH30070.03HI), 50% L-WRN conditioned media (ATCC, cat. CRL-3276), 1.25 mM N-Acetyl-L-cysteine (Sigma-Aldrich, cat. A9165), 10 mM nicotinamide (Sigma-Aldrich, cat. N0636), 1X B-27 supplement (Thermo Fisher Scientific, cat. 17504044), 1X N-2 supplement (Thermo Fisher Scientific, cat. 17502048), and 10 microM Y-27632 dihydrochloride (Tocris Bioscience, Bristol, United Kingdom, cat. 1254). The 624824-186-R-J2-PDC line was cultured in 6C/Colon 1B media, which includes all 6A media components plus 50 ng/mL human EGF recombinant protein (Thermo Fisher Scientific, cat. PHG0311). […]

[1] = second compound 0.00316 µM, first compound 0.0316 µM
[2] = second compound 0.00316 µM, first compound 0.1 µM
[3] = second compound 0.01 µM, first compound 0.0316 µM
[4] = second compound 0.01 µM, first compound 0.1 µM
[5] = second compound 0.0316 µM, first compound 0.0316 µM
[6] = second compound 0.0316 µM, first compound 0.1 µM
[7] = second compound 0.1 µM, first compound 0.0316 µM
[8] = second compound 0.1 µM, first compound 0.1 µM
[9] = second compound 0.316 µM, first compound 0.0316 µM
[10] = second compound 0.316 µM, first compound 0.1 µM
[11] = second compound 1 µM, first compound 0.0316 µM
[12] = second compound 1 µM, first compound 0.1 µM
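Note: viability read 7 days after compound addition.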

SMILES: CC(C)n1nc(-c2ccc3oc(N)nc3c2)c2c(N)ncnc21 + CC(Nc1ccc2c(c1)OCCn1cc(N3C(=O)OCC3C(F)F)nc1-2)C(N)=O
- IC50 (second compound 0.00316 µM): 0.0801 µM
- IC50 (second compound 0.01 µM): > 0.1 µM
- IC50 (second compound 0.0316 µM): 0.0666 µM
- IC50 (second compound 0.1 µM): 0.0607 µM
- IC50 (second compound 0.316 µM): 0.0487 µM
- IC50 (second compound 1 µM): 0.0377 µM
- viability, T/C (second compound 0.00316 µM, first compound 0.000316 µM): 94.6%
- viability, T/C (second compound 0.00316 µM, first compound 0.001 µM): 98%
- viability, T/C (second compound 0.00316 µM, first compound 0.00316 µM): 83%
- viability, T/C (second compound 0.00316 µM, first compound 0.01 µM): 91.5%
- viability, T/C [1]: 80.2%
- viability, T/C [2]: 42.5%
- viability, T/C (second compound 0.01 µM, first compound 0.000316 µM): 104%
- viability, T/C (second compound 0.01 µM, first compound 0.001 µM): 101%
- viability, T/C (second compound 0.01 µM, first compound 0.00316 µM): 86%
- viability, T/C (second compound 0.01 µM, first compound 0.01 µM): 81.1%
- viability, T/C [3]: 68%
- viability, T/C [4]: 52.2%
- viability, T/C (second compound 0.0316 µM, first compound 0.000316 µM): 97.7%
- viability, T/C (second compound 0.0316 µM, first compound 0.001 µM): 104%
- viability, T/C (second compound 0.0316 µM, first compound 0.00316 µM): 101%
- viability, T/C (second compound 0.0316 µM, first compound 0.01 µM): 90%
- viability, T/C [5]: 71%
- viability, T/C [6]: 38.8%
- viability, T/C (second compound 0.1 µM, first compound 0.000316 µM): 89.4%
- viability, T/C (second compound 0.1 µM, first compound 0.001 µM): 83.8%
- viability, T/C (second compound 0.1 µM, first compound 0.00316 µM): 93%
- viability, T/C (second compound 0.1 µM, first compound 0.01 µM): 77.7%
- viability, T/C [7]: 64.1%
- viability, T/C [8]: 39.6%
- viability, T/C (second compound 0.316 µM, first compound 0.000316 µM): 82.7%
- viability, T/C (second compound 0.316 µM, first compound 0.001 µM): 82.7%
- viability, T/C (second compound 0.316 µM, first compound 0.00316 µM): 69%
- viability, T/C (second compound 0.316 µM, first compound 0.01 µM): 70.8%
- viability, T/C [9]: 59.2%
- viability, T/C [10]: 36.7%
- viability, T/C (second compound 1 µM, first compound 0.000316 µM): 72.5%
- viability, T/C (second compound 1 µM, first compound 0.001 µM): 69.3%
- viability, T/C (second compound 1 µM, first compound 0.00316 µM): 70.6%
- viability, T/C (second compound 1 µM, first compound 0.01 µM): 59%
- viability, T/C [11]: 55.9%
- viability, T/C [12]: 31.8%

SMILES: CCCS(=O)(=O)Nc1ccc(F)c(C(=O)c2c[nH]c3ncc(-c4ccc(Cl)cc4)cc23)c1F + CC(Nc1ccc2c(c1)OCCn1cc(N3C(=O)OCC3C(F)F)nc1-2)C(N)=O
- IC50 (second compound 0.00316 µM): 6.11 µM
- IC50 (second compound 0.01 µM): 6.34 µM
- IC50 (second compound 0.0316 µM): 6.06 µM
- IC50 (second compound 0.1 µM): 5.73 µM
- IC50 (second compound 0.316 µM): 4.89 µM
- IC50 (second compound 1 µM): 4.58 µM
- viability, T/C [1]: 95.6%
- viability, T/C [2]: 105%
- viability, T/C (second compound 0.00316 µM, first compound 0.316 µM): 125%
- viability, T/C (second compound 0.00316 µM, first compound 1 µM): 117%
- viability, T/C (second compound 0.00316 µM, first compound 3.16 µM): 120%
- viability, T/C (second compound 0.00316 µM, first compound 10 µM): 2.95%
- viability, T/C [3]: 113%
- viability, T/C [4]: 118%
- viability, T/C (second compound 0.01 µM, first compound 0.316 µM): 121%
- viability, T/C (second compound 0.01 µM, first compound 1 µM): 125%
- viability, T/C (second compound 0.01 µM, first compound 3.16 µM): 132%
- viability, T/C (second compound 0.01 µM, first compound 10 µM): 3.03%
- viability, T/C [5]: 105%
- viability, T/C [6]: 103%
- viability, T/C (second compound 0.0316 µM, first compound 0.316 µM): 110%
- viability, T/C (second compound 0.0316 µM, first compound 1 µM): 119%
- viability, T/C (second compound 0.0316 µM, first compound 3.16 µM): 114%
- viability, T/C (second compound 0.0316 µM, first compound 10 µM): 3.59%
- viability, T/C [7]: 91.9%
- viability, T/C [8]: 81.2%
- viability, T/C (second compound 0.1 µM, first compound 0.316 µM): 102%
- viability, T/C (second compound 0.1 µM, first compound 1 µM): 107%
- viability, T/C (second compound 0.1 µM, first compound 3.16 µM): 111%
- viability, T/C (second compound 0.1 µM, first compound 10 µM): 4.35%
- viability, T/C [9]: 82.3%
- viability, T/C [10]: 86.5%
- viability, T/C (second compound 0.316 µM, first compound 0.316 µM): 87.9%
- viability, T/C (second compound 0.316 µM, first compound 1 µM): 99.2%
- viability, T/C (second compound 0.316 µM, first compound 3.16 µM): 78.9%
- viability, T/C (second compound 0.316 µM, first compound 10 µM): 2.7%
- viability, T/C [11]: 75.5%
- viability, T/C [12]: 75.4%
- viability, T/C (second compound 1 µM, first compound 0.316 µM): 76.3%
- viability, T/C (second compound 1 µM, first compound 1 µM): 61.3%
- viability, T/C (second compound 1 µM, first compound 3.16 µM): 74.7%
- viability, T/C (second compound 1 µM, first compound 10 µM): 2.07%
